System: OVCAR-5 complex spheroids with HUVEC/MSC, viability, % test/control
Assay: Anticancer human tumor OVCAR-5 cell line growth inhibition [AhR];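 note: spheroids exposed to compounds for 7 days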;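 for viability, T/C: 100% = DMSO vehicle control wells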
Settings: for IC50: curve of first compound; for viability, T/C: stronger effect = lower value
Outline: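 Spheroids combined tumor cells with HUVEC endothelial cells and human MSCs as stroma. AhR antagonists were paired with standard or investigational drugs, each dosed in half-log steps down from near clinical Cmax, or from 10 microM where Cmax was unknown.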

[1] = second compound 0.1 µM, first compound 0.0316 µM
[2] = second compound 0.1 µM, first compound 0.1 µM
[3] = second compound 0.1 µM, first compound 0.316 µM
[4] = second compound 0.1 µM, first compound 1 µM
[5] = second compound 0.1 µM, first compound 3.16 µM
[6] = second compound 0.1 µM, first compound 10 µM
[7] = second compound 0.316 µM, first compound 0.0316 µM
[8] = second compound 0.316 µM, first compound 0.1 µM
[9] = second compound 0.316 µM, first compound 0.316 µM
[10] = second compound 0.316 µM, first compound 1 µM
[11] = second compound 0.316 µM, first compound 3.16 µM
[12] = second compound 0.316 µM, first compound 10 µM
[13] = second compound 1 µM, first compound 0.0316 µM
[14] = second compound 1 µM, first compound 0.1 µM
[15] = second compound 1 µM, first compound 0.316 µM
[16] = second compound 1 µM, first compound 1 µM
[17] = second compound 1 µM, first compound 3.16 µM
[18] = second compound 1 µM, first compound 10 µM
[19] = second compound 3.16 µM, first compound 0.0316 µM
[20] = second compound 3.16 µM, first compound 0.1 µM
[21] = second compound 3.16 µM, first compound 0.316 µM
[22] = second compound 3.16 µM, first compound 1 µM
[23] = second compound 3.16 µM, first compound 3.16 µM
[24] = second compound 3.16 µM, first compound 10 µM
[25] = second compound 10 µM, first compound 0.0316 µM
[26] = second compound 10 µM, first compound 0.1 µM
[27] = second compound 10 µM, first compound 0.316 µM
[28] = second compound 10 µM, first compound 1 µM
[29] = second compound 10 µM, first compound 3.16 µM
[30] = second compound 10 µM, first compound 10 µM

CC1(C)CCC(CN2CCN(c3ccc(C(=O)NS(=O)(=O)c4ccc(NCC5CCOCC5)c([N+](=O)[O-])c4)c(Oc4cnc5[nH]ccc5c4)c3)CC2)=C(c2ccc(Cl)cc2)C1 + Cc1cncc(-c2nc(NCCc3c[nH]c4ccccc34)c3ncn(C(C)C)c3n2)c1
IC50 (second compound 0.1 µM): > 10000 nM | IC50 (second compound 0.316 µM): > 10000 nM | IC50 (second compound 1 µM): > 10000 nM | IC50 (second compound 3.16 µM): > 10000 nM | IC50 (second compound 10 µM): < 31.6 nM | viability, T/C [1]: 105% | viability, T/C [2]: 103% | viability, T/C [3]: 106% | viability, T/C [4]: 106% | viability, T/C [5]: 109% | viability, T/C [6]: 90.1% | viability, T/C [7]: 101% | viability, T/C [8]: 103% | viability, T/C [9]: 102% | viability, T/C [10]: 105% | viability, T/C [11]: 109% | viability, T/C [12]: 89.5% | viability, T/C [13]: 101% | viability, T/C [14]: 100% | viability, T/C [15]: 102% | viability, T/C [16]: 103% | viability, T/C [17]: 104% | viability, T/C [18]: 86.8% | viability, T/C [19]: 81.5% | viability, T/C [20]: 85.6% | viability, T/C [21]: 86.3% | viability, T/C [22]: 83.4% | viability, T/C [23]: 88.5% | viability, T/C [24]: 75.3% | viability, T/C [25]: 4.28% | viability, T/C [26]: 4.26% | viability, T/C [27]: 5.72% | viability, T/C [28]: 3.52% | viability, T/C [29]: 4.43% | viability, T/C [30]: 9.47%

CCN(c1cc(-c2ccc(CN3CCOCC3)cc2)cc(C(=O)NCc2c(C)cc(C)[nH]c2=O)c1C)C1CCOCC1 + Cc1cncc(-c2nc(NCCc3c[nH]c4ccccc34)c3ncn(C(C)C)c3n2)c1
IC50 (second compound 0.1 µM): > 3000 nM | IC50 (second compound 0.316 µM): > 3000 nM | IC50 (second compound 1 µM): > 3000 nM | IC50 (second compound 3.16 µM): > 3000 nM | IC50 (second compound 10 µM): < 9.49 nM | viability, T/C (second compound 0.1 µM, first compound 0.00949 µM): 101% | viability, T/C (second compound 0.1 µM, first compound 0.03 µM): 101% | viability, T/C (second compound 0.1 µM, first compound 0.0949 µM): 98.9% | viability, T/C (second compound 0.1 µM, first compound 0.3 µM): 97.3% | viability, T/C (second compound 0.1 µM, first compound 0.949 µM): 97.1% | viability, T/C (second compound 0.1 µM, first compound 3 µM): 96.7% | viability, T/C (second compound 0.316 µM, first compound 0.00949 µM): 102% | viability, T/C (second compound 0.316 µM, first compound 0.03 µM): 100% | viability, T/C (second compound 0.316 µM, first compound 0.0949 µM): 96.5% | viability, T/C (second compound 0.316 µM, first compound 0.3 µM): 97.8% | viability, T/C (second compound 0.316 µM, first compound 0.949 µM): 94.7% | viability, T/C (second compound 0.316 µM, first compound 3 µM): 98.2% | viability, T/C (second compound 1 µM, first compound 0.00949 µM): 93.4% | viability, T/C (second compound 1 µM, first compound 0.03 µM): 93.4% | viability, T/C (second compound 1 µM, first compound 0.0949 µM): 97% | viability, T/C (second compound 1 µM, first compound 0.3 µM): 90.6% | viability, T/C (second compound 1 µM, first compound 0.949 µM): 89.7% | viability, T/C (second compound 1 µM, first compound 3 µM): 89.6% | viability, T/C (second compound 3.16 µM, first compound 0.00949 µM): 78.5% | viability, T/C (second compound 3.16 µM, first compound 0.03 µM): 79% | viability, T/C (second compound 3.16 µM, first compound 0.0949 µM): 80.2% | viability, T/C (second compound 3.16 µM, first compound 0.3 µM): 75.3% | viability, T/C (second compound 3.16 µM, first compound 0.949 µM): 72.7% | viability, T/C (second compound 3.16 µM, first compound 3 µM): 70.4% | viability, T/C (second compound 10 µM, first compound 0.00949 µM): 14.8% | viability, T/C (second compound 10 µM, first compound 0.03 µM): 16% | viability, T/C (second compound 10 µM, first compound 0.0949 µM): 15.4% | viability, T/C (second compound 10 µM, first compound 0.3 µM): 6.52% | viability, T/C (second compound 10 µM, first compound 0.949 µM): 2.63% | viability, T/C (second compound 10 µM, first compound 3 µM): 1.33%

Cn1ncnc1C1c2n[nH]c(=O)c3cc(F)cc(c23)NC1c1ccc(F)cc1 (stereo not given) + Cc1cncc(-c2nc(NCCc3c[nH]c4ccccc34)c3ncn(C(C)C)c3n2)c1
IC50 (second compound 0.1 µM): > 100 nM | IC50 (second compound 0.316 µM): > 100 nM | IC50 (second compound 1 µM): > 100 nM | IC50 (second compound 3.16 µM): > 100 nM | IC50 (second compound 10 µM): < 0.316 nM | viability, T/C (second compound 0.1 µM, first compound 0.000316 µM): 99.4% | viability, T/C (second compound 0.1 µM, first compound 0.001 µM): 102% | viability, T/C (second compound 0.1 µM, first compound 0.00316 µM): 103% | viability, T/C (second compound 0.1 µM, first compound 0.01 µM): 104% | viability, T/C [1]: 101% | viability, T/C [2]: 99.2% | viability, T/C (second compound 0.316 µM, first compound 0.000316 µM): 101% | viability, T/C (second compound 0.316 µM, first compound 0.001 µM): 104% | viability, T/C (second compound 0.316 µM, first compound 0.00316 µM): 100% | viability, T/C (second compound 0.316 µM, first compound 0.01 µM): 99.2% | viability, T/C [7]: 99.4% | viability, T/C [8]: 95.2% | viability, T/C (second compound 1 µM, first compound 0.000316 µM): 98.1% | viability, T/C (second compound 1 µM, first compound 0.001 µM): 97.9% | viability, T/C (second compound 1 µM, first compound 0.00316 µM): 95.8% | viability, T/C (second compound 1 µM, first compound 0.01 µM): 96.4% | viability, T/C [13]: 94.6% | viability, T/C [14]: 93.6% | viability, T/C (second compound 3.16 µM, first compound 0.000316 µM): 85% | viability, T/C (second compound 3.16 µM, first compound 0.001 µM): 87.3% | viability, T/C (second compound 3.16 µM, first compound 0.00316 µM): 86.3% | viability, T/C (second compound 3.16 µM, first compound 0.01 µM): 87.7% | viability, T/C [19]: 83.4% | viability, T/C [20]: 89.5% | viability, T/C (second compound 10 µM, first compound 0.000316 µM): 26.6% | viability, T/C (second compound 10 µM, first compound 0.001 µM): 28.5% | viability, T/C (second compound 10 µM, first compound 0.00316 µM): 30.9% | viability, T/C (second compound 10 µM, first compound 0.01 µM): 27.2% | viability, T/C [25]: 23% | viability, T/C [26]: 30.7%

NS(=O)(=O)OCC1CC(n2ccc3c(NC4CCc5ccccc54)ncnc32)CC1O (stereo not given) + Cc1cncc(-c2nc(NCCc3c[nH]c4ccccc34)c3ncn(C(C)C)c3n2)c1
IC50 (second compound 0.1 µM): 152 nM | IC50 (second compound 0.316 µM): 114 nM | IC50 (second compound 1 µM): 91.8 nM | IC50 (second compound 3.16 µM): 98 nM | IC50 (second compound 10 µM): < 31.6 nM | viability, T/C [1]: 86.4% | viability, T/C [2]: 57.5% | viability, T/C [3]: 37.2% | viability, T/C [4]: 17.6% | viability, T/C [5]: 13.1% | viability, T/C [6]: 12.2% | viability, T/C [7]: 78% | viability, T/C [8]: 51.5% | viability, T/C [9]: 33% | viability, T/C [10]: 16.5% | viability, T/C [11]: 13.6% | viability, T/C [12]: 12.3% | viability, T/C [13]: 69.7% | viability, T/C [14]: 47.4% | viability, T/C [15]: 31.6% | viability, T/C [16]: 16.6% | viability, T/C [17]: 11.3% | viability, T/C [18]: 10.7% | viability, T/C [19]: 64% | viability, T/C [20]: 50.2% | viability, T/C [21]: 22.7% | viability, T/C [22]: 10.7% | viability, T/C [23]: 6.17% | viability, T/C [24]: 4.99% | viability, T/C [25]: 3.84% | viability, T/C [26]: 3.41% | viability, T/C [27]: 2.74% | viability, T/C [28]: 2.03% | viability, T/C [29]: 0.83% | viability, T/C [30]: 0.48%

Reference: PubChem BioAssay AID1919015 (Molecular Pharmacology Branch, DTP, NCI, 2023)
